# Reference: US20260199323A1, “LIGAND COMPOUNDS FOR E3 UBIQUITIN LIGASE, PROTEIN DEGRADERS DEVELOPED ON BASIS OF LIGAND COMPOUNDS, AND USES THEREOF” (GLUETACS THERAPEUTICS (SHANGHAI) CO., LTD., priority 2021, published 2026)
# Read-outs that look alike come from different tables or passages of the source.
# Experiments:
# [1] = system: MV-4-11; assay: CCK-8 tumor cell proliferation, MV-4-11; assay type: cell-based, Human; conditions: Homo sapiens, MV4-11, MV-4-11, read-out: IC50 inhibiting proliferation of tumor cells, MV-4-11
# Experimental: (§1) The tumor cells used herein were cultured in a cell culture medium listed in table 4 at 37° C. in an incubator with 5% CO2. Prior to experimentation, all cells used were correctly identified by STR profiling, and tested negative for mycoplasma through routine screenings.
# (§2) IC50 values of the compounds of the present disclosure (including the compounds in Tables 1 and 3, and compounds of examples) were measured using the Meilun Cell Counting Kit-8 kit from Dalian Meilun Biotech Co., Ltd. Assay details are as follows: tumor cells were seeded in a 96-well plate at a density listed in Table 5. After 24 h, 100 μL of the inoculated cells were treated with 0.5 μL of the compounds of the present disclosure (including the compounds in Tables 1 and 3, and compounds of examples) at 10 different successively decreasing concentrations (starting at the highest concentration of 10 μM; 5-fold serial dilutions). After the cells were treated with the compounds of the present disclosure for a period of time, the cell viability detection reagent was added to the culture medium for cell viability assessment according to the instructions provided with the CCK-8 kit. […] The growth inhibition of the compounds of the present disclosure on cells was plotted by Prism Graphpad software, and the IC50 values of the compounds of the present disclosure were calculated therefrom.
# [2] = system: SR; assay: CCK-8 tumor cell proliferation, SR; assay type: cell-based, Human; conditions: Homo sapiens; Table 15, ALK inhibitor based; SR; read-out: IC50 inhibiting proliferation of tumor cells, SR
# In short: (§3)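 IC50 derived from CCK-8 cell viability after compound treatment. Dilution series: 10 concentrations, 5-fold apart, from 10 μM. Compound added 24 h post-seeding; culture at 37 °C in 5% CO2.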
# [3] = system: MM.1R; assay: CCK-8 tumor cell proliferation, MM.1R; assay type: cell-based
# Experimental: as §1, §2
# [4] = system: Jurkat; assay: CCK-8 tumor cell proliferation, Jurkat; assay type: cell-based, Human; conditions: Homo sapiens
# Experimental: as §1, §2
# [5] = system: CAL-62; assay: CCK-8 tumor cell proliferation, CAL-62; assay type: cell-based, Human; conditions: Homo sapiens, CAL-62
# In short: as §3
# [6] = system: CCRF-CEM; assay: CCK-8 tumor cell proliferation, CCRF-CEM; assay type: cell-based, Human; conditions: Homo sapiens; Table 19, IRAK4 inhibitor based; CCRF-CEM; read-out: IC50 inhibiting proliferation of tumor cells, CCRF-CEM
# In short: as §3
# [7] = Table 19, IRAK4 inhibitor based
# [8] = Table 23, compared to Comparative Example compounds, read-out: Inhibitory activity (IC50, nM) against tumor cell proliferation, MM.1R
# [9] = Table 23, compared to Comparative Example compounds, read-out: Inhibitory activity (IC50, nM) against tumor cell proliferation, Jurkat
# [10] = Table 23, compared to Comparative Example compounds, read-out: Inhibitory activity (IC50, nM) against tumor cell proliferation, CAL-62
smiles,measurement,setting,value
"Cc1cc(-c2nc(C(=O)Nc3cc4oc(N5CCN(Cc6ccc7c(c6F)CN(C6CCC(=O)NC6=O)C7=O)CC5)nc4nc3N3CC[C@@H](O)C3)co2)ccn1 (stereo partly drawn) [GT-03841, N-(2-(4-((2-(2,6-dioxopiperidin-3-yl)-4-fluoro-1-oxoisoindolin-5-yl)methyl)piperazin-1-yl)-5-((R)-3-hydroxypyrrolidin-1-yl)oxazolo[4,5-b]pyridin-6-yl)-2-(2-methylpyridin-4-yl)oxazole-4-carboxamide]",IC50,[1]; [7],100 to 500 nM
"CCc1cc2c(cc1N1CCC(N3CCN(Cc4ccc5c(c4F)CN(C4CCC(=O)NC4=O)C5=O)CC3)CC1)C(C)(C)c1[nH]c3cc(C#N)ccc3c1C2=O (stereo not shown) [GT-03758, 8-(4-(4-((2-(2,6-dioxopiperidin-3-yl)-4-fluoro-1-oxoisoindolin-5-yl)methyl)piperazin-1-yl)piperidin-1-yl)-9-ethyl-6,6-dimethyl-11-oxo-6,11-dihydro-5H-benzo[b]carbazole-3-carbonitrile]",IC50,[2],< 50 nM
same,IC50,"[1]; Table 15, ALK inhibitor based",100 to 500 nM
"Cc1cc(-c2nc(C(=O)Nc3cc4oc(N5CCN(Cc6cc7c(cc6F)C(=O)N(C6CCC(=O)NC6=O)C7)CC5)nc4nc3N3CC[C@@H](O)C3)co2)ccn1 (stereo partly drawn) [GT-03842, N-(2-(4-((2-(2,6-dioxopiperidin-3-yl)-6-fluoro-1-oxoisoindolin-5-yl)methyl)piperazin-1-yl)-5-((R)-3-hydroxypyrrolidin-1-yl)oxazolo[4,5-b]pyridin-6-yl)-2-(2-methylpyridin-4-yl)oxazole-4-carboxamide]",IC50,[1]; [7],100 to 500 nM
"COc1cc(N2CCN(Cc3cc4c(cc3F)C(=O)N(C3CCC(=O)NC3=O)C4)CC2)ccc1Nc1ncc(Cl)c(Nc2ccccc2P(C)(C)=O)n1 (stereo not shown) [GT-03777, 3-(5-((4-(4-((5-chloro-4-((2-(dimethylphosphoryl)phenyl)amino)pyrimidin-2-yl)amino)-3-methoxyphenyl)piperazin-1-yl)methyl)-6-fluoro-1-oxoisoindolin-2-yl)piperidine-2,6-dione]",IC50,[2],< 50 nM
same,IC50,"[1]; Table 15, ALK inhibitor based",50 to 100 nM
"CCc1cc2c(cc1N1CCC(N3CCN(Cc4ccc5c(c4)C(=O)N(C4CCC(=O)NC4=O)C5=O)CC3)CC1)C(C)(C)c1[nH]c3cc(C#N)ccc3c1C2=O (stereo not shown) [GT-03761, 8-(4-(4-((2-(2,6-dioxopiperidin-3-yl)-1,3-dioxoisoindolin-5-yl)methyl)piperazin-1-yl)piperidin-1-yl)-9-ethyl-6,6-dimethyl-11-oxo-6,11-dihydro-5H-benzo[b]carbazole-3-carbonitrile]",IC50,[2],< 50 nM
same,IC50,"[1]; Table 15, ALK inhibitor based",1000 to 5000 nM
"O=C1CCC(N2Cc3cc(CCCN4CCN(c5ccc([C@@H]6c7ccc(O)cc7CC[C@@H]6c6ccccc6)cc5)CC4)ccc3C2=O)C(=O)N1 (stereo partly drawn) [GT-04564, 3-(5-(3-(4-(4-((1R,2S)-6-hydroxy-2-phenyl-1,2,3,4-tetrahydronaphthalen-1-yl)phenyl)piperazin-1-yl)propyl)-1-oxoisoindolin-2-yl)piperidine-2,6-dione]",IC50,[3]; [8],1000 to 5000 nM
same,IC50,[4]; [9],100 to 500 nM
same,IC50,[5]; [10],1000 to 5000 nM
"COc1cc(N2CCN(Cc3cccc4c3CN(C3CCC(=O)NC3=O)C4=O)CC2)ccc1Nc1ncc(Cl)c(Nc2ccccc2P(C)(C)=O)n1 (stereo not shown) [GT-03779, 3-(4-((4-(4-((5-chloro-4-((2-(dimethylphosphoryl)phenyl)amino)pyrimidin-2-yl)amino)-3-methoxyphenyl)piperazin-1-yl)methyl)-1-oxoisoindolin-2-yl)piperidine-2,6-dione]",IC50,[2],< 50 nM
same,IC50,"[1]; Table 15, ALK inhibitor based",100 to 500 nM
"COc1cc(N2CCN(Cc3cc(F)c4c(c3)CN(C3CCC(=O)NC3=O)C4=O)CC2)ccc1Nc1ncc(Cl)c(Nc2ccccc2P(C)(C)=O)n1 (stereo not shown) [GT-03778, 3-(5-((4-(4-((5-chloro-4-((2-(dimethylphosphoryl)phenyl)amino)pyrimidin-2-yl)amino)-3-methoxyphenyl)piperazin-1-yl)methyl)-7-fluoro-1-oxoisoindolin-2-yl)piperidine-2,6-dione]",IC50,[2],< 50 nM
same,IC50,"[1]; Table 15, ALK inhibitor based",100 to 500 nM
"O=C1CCC(N2Cc3cc(CCN4CCN(c5ccc([C@@H]6c7ccc(O)cc7CC[C@@H]6c6ccccc6)cc5)CC4)ccc3C2=O)C(=O)N1 (stereo partly drawn) [GT-04562, 3-(5-(2-(4-(4-((1R,2S)-6-hydroxy-2-phenyl-1,2,3,4-tetrahydronaphthalen-1-yl)phenyl)piperazin-1-yl)ethyl)-1-oxoisoindolin-2-yl)piperidine-2,6-dione]",IC50,[3]; [8],5000 to 10000 nM
same,IC50,[4]; [9],100 to 500 nM
same,IC50,[5]; [10],1000 to 5000 nM
"Cc1cc(-c2nc(C(=O)Nc3cc4oc(N5CCN(Cc6cc(F)c7c(c6)CN(C6CCC(=O)NC6=O)C7=O)CC5)nc4nc3N3CC[C@@H](O)C3)co2)ccn1 (stereo partly drawn) [GT-03843, N-(2-(4-((2-(2,6-dioxopiperidin-3-yl)-7-fluoro-1-oxoisoindolin-5-yl)methyl)piperazin-1-yl)-5-((R)-3-hydroxypyrrolidin-1-yl)oxazolo[4,5-b]pyridin-6-yl)-2-(2-methylpyridin-4-yl)oxazole-4-carboxamide]",IC50,[6],< 50 nM
same,IC50,[1]; [7],50 to 100 nM
"CC(C)(O)c1cc2nc(C3CCN(Cc4cc5c(cc4F)C(=O)N(C4CCC(=O)NC4=O)C5)CC3)oc2cc1NC(=O)c1cccc(C(F)(F)F)n1 (stereo not shown) [GT-04519, N-(2-(1-((2-(2,6-dioxopiperidin-3-yl)-6-fluoro-1-oxoisoindolin-5-yl)methyl)piperidin-4-yl)-5-(2-hydroxypropan-2-yl)benzo[d]oxazol-6-yl)-6-(trifluoromethyl)picolinamide]",IC50,"[3]; Table 19, IRAK4 inhibitor based, read-out: IC50 inhibiting proliferation of tumor cells, MM.1R",< 50 nM
same,IC50,"[4]; Table 19, IRAK4 inhibitor based, read-out: IC50 inhibiting proliferation of tumor cells, Jurkat",< 50 nM
same,IC50,"[5]; Table 19, IRAK4 inhibitor based, read-out: IC50 inhibiting proliferation of tumor cells, CAL-62",< 50 nM
"Cc1cc(-c2nc(C(=O)Nc3cc4oc(N5CCN(Cc6ccc7c(c6)C(=O)N(C6CCC(=O)NC6=O)C7=O)CC5)nc4nc3N3CC[C@@H](O)C3)co2)ccn1 (stereo partly drawn) [GT-03845, N-(2-(4-((2-(2,6-dioxopiperidin-3-yl)-1,3-dioxoisoindolin-5-yl)methyl)piperazin-1-yl)-5-((R)-3-hydroxypyrrolidin-1-yl)oxazolo[4,5-b]pyridin-6-yl)-2-(2-methylpyridin-4-yl)oxazole-4-carboxamide]",IC50,[1]; [7],500 to 1000 nM
"Cc1cc(-c2nc(C(=O)Nc3cc4oc(N5CCN(Cc6cccc7c6CN(C6CCC(=O)NC6=O)C7=O)CC5)nc4nc3N3CC[C@@H](O)C3)co2)ccn1 (stereo partly drawn) [GT-03844, N-(2-(4-((2-(2,6-dioxopiperidin-3-yl)-1-oxoisoindolin-4-yl)methyl)piperazin-1-yl)-5-((R)-3-hydroxypyrrolidin-1-yl)oxazolo[4,5-b]pyridin-6-yl)-2-(2-methylpyridin-4-yl)oxazole-4-carboxamide]",IC50,[1]; [7],100 to 500 nM
"CCc1cc2c(cc1N1CCC(N3CCN(CCCc4ccc5c(c4)CN(C4CCC(=O)NC4=O)C5=O)CC3)CC1)C(C)(C)c1[nH]c3cc(C#N)ccc3c1C2=O (stereo not shown) [GT-04457, 8-(4-(4-(3-(2-(2,6-dioxopiperidin-3-yl)-1-oxoisoindolin-5-yl)propyl)piperazin-1-yl)piperidin-1-yl)-9-ethyl-6,6-dimethyl-11-oxo-6,11-dihydro-5H-benzo[b]carbazole-3-carbonitrile]",IC50,[3]; [8],5000 to 10000 nM
same,IC50,[4]; [9],100 to 500 nM
same,IC50,[5]; [10],5000 to 10000 nM
"Nc1ncnc2c1c(-c1ccc(Oc3ccccc3)cc1)nn2C1CCN(CCCc2ccc3c(c2)CN(C2CCC(=O)NC2=O)C3=O)CC1 (stereo not shown) [GT-04565, 3-(5-(3-(4-(4-amino-3-(4-phenoxyphenyl)-1H-pyrazolo[3,4-d]pyrimidin-1-yl)piperidin-1-yl)propyl)-1-oxoisoindolin-2-yl)piperidine-2,6-dione]",IC50,"[3]; Table 23, given as number, read-out: Inhibitory activity (IC50, nM) against tumor cell proliferation, MM.1R",> 10000 nM
same,IC50,[4]; [9],5000 to 10000 nM
same,IC50,"[5]; Table 23, given as number, read-out: Inhibitory activity (IC50, nM) against tumor cell proliferation, CAL-62",> 10000 nM
